# Measured values as given in patent US10953011B2, “Methods of treating virally associated cancers with histone deacetylase inhibitors” (priority 2019, dated 2021).
# Legend:
# Test in all cases: in vitro HDAC inhibition assay (fluorescence)
# Assay type in all cases: biochemical
# [1] = biological target: HDAC4 (Homo sapiens, UniProt P56524); conditions: for inhibition at 100 µM: read-out: Percentage Inhibition HDAC4
# Method: (§1) Briefly, all of the compounds are dissolved in DMSO. A series of dilutions of the compounds were prepared with 10% DMSO in HDAC assay buffer and 5 μl of the dilution was added to a 50 μl reaction so that the final concentration of DMSO is 1% in all of reactions. The compounds were pre-incubated in duplicate at RT for 1 hour in a mixture containing HDAC assay buffer, 5 μg BSA, HDAC enzyme (see Table 7) and a the particular HDACi. After 1 hour, the enzymatic reactions were initiated by the addition of HDAC substrate (BPS Bioscience) to a final concentration of 10 μM or 2 μM. The enzymatic reaction proceeded for 30 minutes at 37° C.
# (§2) HDAC activity assays were performed in duplicates at each concentration. The fluorescent intensity data were analyzed using the computer software, Graphpad Prism. In the absence of the compound, the fluorescent intensity (Ft) in each data set was defined as 100% activity. In the absence of HDAC, the fluorescent intensity (Fb) in each data set was defined as 0% activity. The percent activity in the presence of each compound was calculated according to the following equation: % activity=(F−Fb)/(Ft−Fb), where F=the fluorescent intensity in the presence of the compound.
# (§3) The values of % activity versus a series of compound concentrations were then plotted using non-linear regression analysis of Sigmoidal dose-response curve generated with the equation Y=B+(T−B)/1+10^((Log EC50-X)×Hill Slope), where Y=percent activity, B=minimum percent activity, T=maximum percent activity, X=logarithm of compound and Hill Slope=slope factor or Hill coefficient. The IC50 value was determined by the concentration causing a half-maximal percent activity.
# [2] = biological target: T1, HDAC7 (Homo sapiens, UniProt Q8WUI4); conditions: for inhibition at 100 µM: read-out: Percentage Inhibition HDAC7
# T1 sequence (Q8WUI4 1-952): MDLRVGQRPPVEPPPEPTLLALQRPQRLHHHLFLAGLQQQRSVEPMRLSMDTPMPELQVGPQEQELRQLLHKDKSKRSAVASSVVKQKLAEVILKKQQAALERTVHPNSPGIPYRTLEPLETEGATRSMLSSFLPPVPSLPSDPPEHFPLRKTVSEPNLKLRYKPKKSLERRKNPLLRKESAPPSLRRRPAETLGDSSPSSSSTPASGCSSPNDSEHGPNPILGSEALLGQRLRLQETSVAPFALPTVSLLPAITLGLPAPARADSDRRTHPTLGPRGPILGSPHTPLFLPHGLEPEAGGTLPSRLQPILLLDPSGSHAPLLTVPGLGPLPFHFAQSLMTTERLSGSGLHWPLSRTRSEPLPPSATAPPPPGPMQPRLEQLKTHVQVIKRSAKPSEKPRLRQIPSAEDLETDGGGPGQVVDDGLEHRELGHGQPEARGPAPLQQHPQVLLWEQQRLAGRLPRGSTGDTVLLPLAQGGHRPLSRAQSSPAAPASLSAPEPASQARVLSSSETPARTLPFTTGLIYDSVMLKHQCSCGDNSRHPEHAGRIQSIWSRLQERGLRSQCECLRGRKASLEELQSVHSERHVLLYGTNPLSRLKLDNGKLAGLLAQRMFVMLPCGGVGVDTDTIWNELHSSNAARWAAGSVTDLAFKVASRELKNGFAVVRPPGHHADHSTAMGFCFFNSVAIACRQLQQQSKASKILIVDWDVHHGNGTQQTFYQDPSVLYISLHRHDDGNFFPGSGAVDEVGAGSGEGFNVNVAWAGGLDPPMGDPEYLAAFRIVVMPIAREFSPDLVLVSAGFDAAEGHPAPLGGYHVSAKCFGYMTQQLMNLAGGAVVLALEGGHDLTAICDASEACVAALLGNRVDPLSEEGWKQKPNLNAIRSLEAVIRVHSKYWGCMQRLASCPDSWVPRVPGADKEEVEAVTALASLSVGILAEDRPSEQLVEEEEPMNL
# Method: as §1, §2, §3
# [3] = biological target: HDAC9 (Homo sapiens, UniProt Q9UKV0); conditions: for inhibition at 100 µM: read-out: Percentage Inhibition HDAC9
# Method: as §1, §2, §3
# [4] = biological target: T2, HDAC11 (Homo sapiens, UniProt Q96DB2)
# T2 sequence (Q96DB2 1-347): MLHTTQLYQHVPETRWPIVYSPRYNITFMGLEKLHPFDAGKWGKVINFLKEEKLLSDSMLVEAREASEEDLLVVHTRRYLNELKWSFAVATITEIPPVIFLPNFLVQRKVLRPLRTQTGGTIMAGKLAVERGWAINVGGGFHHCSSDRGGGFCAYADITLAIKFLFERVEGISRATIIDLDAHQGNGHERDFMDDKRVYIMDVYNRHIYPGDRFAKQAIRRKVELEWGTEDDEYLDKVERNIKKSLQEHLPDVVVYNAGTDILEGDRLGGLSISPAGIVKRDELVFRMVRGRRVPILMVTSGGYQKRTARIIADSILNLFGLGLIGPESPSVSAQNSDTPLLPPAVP
# Method: as §1, §2, §3
# [5] = biological target: HDAC1 (Homo sapiens, UniProt Q13547)
# Method: as §1, §2, §3
# [6] = biological target: HDAC5 (Homo sapiens, UniProt Q9UQL6)
# Method: as §1, §2, §3
# HDAC4, sequence (P56524 whole entry): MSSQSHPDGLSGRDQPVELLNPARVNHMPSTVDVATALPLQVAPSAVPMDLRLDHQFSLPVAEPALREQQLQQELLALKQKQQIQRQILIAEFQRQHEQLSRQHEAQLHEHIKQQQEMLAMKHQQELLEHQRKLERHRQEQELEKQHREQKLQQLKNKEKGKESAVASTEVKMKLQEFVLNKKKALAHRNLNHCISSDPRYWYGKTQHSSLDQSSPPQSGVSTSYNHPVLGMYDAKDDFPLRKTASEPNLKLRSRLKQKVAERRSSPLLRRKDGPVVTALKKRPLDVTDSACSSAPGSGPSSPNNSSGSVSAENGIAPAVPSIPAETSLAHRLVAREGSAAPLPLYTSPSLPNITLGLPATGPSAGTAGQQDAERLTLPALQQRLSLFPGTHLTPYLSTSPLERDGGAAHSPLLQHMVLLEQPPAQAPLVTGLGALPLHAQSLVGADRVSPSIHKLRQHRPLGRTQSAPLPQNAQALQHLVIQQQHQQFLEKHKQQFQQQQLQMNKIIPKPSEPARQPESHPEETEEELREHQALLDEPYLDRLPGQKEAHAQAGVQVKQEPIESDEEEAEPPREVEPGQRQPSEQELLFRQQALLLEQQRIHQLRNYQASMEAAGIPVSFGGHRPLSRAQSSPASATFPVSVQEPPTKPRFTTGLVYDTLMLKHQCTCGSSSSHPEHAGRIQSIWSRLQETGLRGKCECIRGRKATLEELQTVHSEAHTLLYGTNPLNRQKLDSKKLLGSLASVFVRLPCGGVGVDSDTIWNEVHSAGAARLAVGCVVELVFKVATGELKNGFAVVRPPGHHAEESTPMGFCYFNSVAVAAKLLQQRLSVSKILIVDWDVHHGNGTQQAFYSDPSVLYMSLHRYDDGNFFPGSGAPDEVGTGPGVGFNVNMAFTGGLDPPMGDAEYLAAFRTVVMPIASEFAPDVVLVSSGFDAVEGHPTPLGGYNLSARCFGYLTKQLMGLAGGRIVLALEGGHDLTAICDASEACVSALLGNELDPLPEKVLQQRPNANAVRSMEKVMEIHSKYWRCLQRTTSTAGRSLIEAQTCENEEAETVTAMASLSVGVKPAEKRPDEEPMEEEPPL
# HDAC9, sequence (Q9UKV0 whole entry): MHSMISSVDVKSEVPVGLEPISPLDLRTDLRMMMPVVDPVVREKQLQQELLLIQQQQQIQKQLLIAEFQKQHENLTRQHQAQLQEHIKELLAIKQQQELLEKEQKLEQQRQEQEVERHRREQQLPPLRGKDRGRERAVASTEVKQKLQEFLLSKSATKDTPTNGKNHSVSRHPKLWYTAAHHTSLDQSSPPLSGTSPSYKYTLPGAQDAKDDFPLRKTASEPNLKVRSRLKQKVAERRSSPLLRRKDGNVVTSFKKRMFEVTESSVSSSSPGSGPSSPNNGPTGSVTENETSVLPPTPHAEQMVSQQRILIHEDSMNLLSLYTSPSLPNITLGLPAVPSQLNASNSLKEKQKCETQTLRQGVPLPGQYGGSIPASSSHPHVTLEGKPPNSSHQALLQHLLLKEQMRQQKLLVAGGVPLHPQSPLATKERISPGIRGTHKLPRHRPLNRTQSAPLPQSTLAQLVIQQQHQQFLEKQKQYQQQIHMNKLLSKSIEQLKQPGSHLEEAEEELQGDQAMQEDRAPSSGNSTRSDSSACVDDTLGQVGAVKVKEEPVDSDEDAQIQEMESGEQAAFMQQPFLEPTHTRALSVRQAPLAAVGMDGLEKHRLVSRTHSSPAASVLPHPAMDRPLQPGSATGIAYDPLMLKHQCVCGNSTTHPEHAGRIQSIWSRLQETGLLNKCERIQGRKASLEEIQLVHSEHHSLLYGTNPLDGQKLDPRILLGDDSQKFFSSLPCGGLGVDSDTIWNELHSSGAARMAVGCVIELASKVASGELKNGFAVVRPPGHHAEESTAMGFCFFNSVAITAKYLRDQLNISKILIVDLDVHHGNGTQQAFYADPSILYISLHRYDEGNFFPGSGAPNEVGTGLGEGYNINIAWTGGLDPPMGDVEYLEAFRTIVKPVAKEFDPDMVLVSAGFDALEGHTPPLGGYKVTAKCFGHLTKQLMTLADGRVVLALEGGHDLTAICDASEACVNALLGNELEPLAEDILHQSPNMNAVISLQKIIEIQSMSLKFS
# HDAC5, sequence (Q9UQL6 whole entry): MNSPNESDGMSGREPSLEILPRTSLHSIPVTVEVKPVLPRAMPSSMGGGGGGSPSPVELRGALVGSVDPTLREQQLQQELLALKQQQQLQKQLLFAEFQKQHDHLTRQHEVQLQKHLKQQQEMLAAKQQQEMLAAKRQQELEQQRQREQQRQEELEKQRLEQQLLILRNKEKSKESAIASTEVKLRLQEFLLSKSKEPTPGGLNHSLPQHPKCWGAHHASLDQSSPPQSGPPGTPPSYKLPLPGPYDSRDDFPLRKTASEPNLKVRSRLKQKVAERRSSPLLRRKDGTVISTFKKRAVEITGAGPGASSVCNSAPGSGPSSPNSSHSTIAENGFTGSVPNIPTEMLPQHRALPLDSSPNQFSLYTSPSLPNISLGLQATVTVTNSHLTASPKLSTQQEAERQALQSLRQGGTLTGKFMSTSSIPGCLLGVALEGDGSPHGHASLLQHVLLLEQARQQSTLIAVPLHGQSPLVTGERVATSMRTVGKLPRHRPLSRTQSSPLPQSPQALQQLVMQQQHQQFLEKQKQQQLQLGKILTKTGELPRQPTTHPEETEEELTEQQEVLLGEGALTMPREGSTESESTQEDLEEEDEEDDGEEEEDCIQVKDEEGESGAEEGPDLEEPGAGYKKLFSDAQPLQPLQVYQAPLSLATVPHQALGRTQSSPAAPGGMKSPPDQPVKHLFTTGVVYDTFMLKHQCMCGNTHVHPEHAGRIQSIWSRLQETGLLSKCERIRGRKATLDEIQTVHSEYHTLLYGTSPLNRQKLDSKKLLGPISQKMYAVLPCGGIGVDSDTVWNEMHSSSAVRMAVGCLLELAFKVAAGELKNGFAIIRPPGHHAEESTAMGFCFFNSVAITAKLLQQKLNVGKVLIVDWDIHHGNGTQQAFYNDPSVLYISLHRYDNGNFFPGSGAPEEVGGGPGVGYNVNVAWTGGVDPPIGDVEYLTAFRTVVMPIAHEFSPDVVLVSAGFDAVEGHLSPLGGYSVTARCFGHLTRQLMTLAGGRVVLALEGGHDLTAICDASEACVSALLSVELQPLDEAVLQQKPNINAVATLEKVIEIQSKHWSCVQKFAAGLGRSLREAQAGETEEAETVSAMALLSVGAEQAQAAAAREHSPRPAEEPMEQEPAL
# HDAC1, sequence (Q13547 whole entry): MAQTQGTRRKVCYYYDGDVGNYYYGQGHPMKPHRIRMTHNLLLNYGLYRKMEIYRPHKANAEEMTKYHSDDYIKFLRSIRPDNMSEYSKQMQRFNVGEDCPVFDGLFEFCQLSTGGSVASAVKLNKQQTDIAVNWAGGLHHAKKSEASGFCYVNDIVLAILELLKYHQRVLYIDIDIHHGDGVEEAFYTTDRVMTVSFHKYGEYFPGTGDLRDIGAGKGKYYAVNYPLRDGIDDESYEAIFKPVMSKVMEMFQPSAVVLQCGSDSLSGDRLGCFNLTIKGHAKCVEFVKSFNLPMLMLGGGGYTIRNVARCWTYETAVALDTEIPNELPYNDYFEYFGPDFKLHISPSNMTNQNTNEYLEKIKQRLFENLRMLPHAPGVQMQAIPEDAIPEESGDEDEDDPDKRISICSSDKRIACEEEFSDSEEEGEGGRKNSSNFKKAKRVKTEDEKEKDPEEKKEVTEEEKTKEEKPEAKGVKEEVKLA
Compound,inhibition at 100 µM [1] [%],inhibition at 100 µM [2] [%],inhibition at 100 µM [3] [%],IC50 [4] [µM],IC50 [5] [µM],inhibition at 100 µM ([4]; read-out: Percentage Inhibition HDAC11) [%],IC50 [1] [µM],IC50 [6] [µM],inhibition at 100 µM ([6]; read-out: Percentage Inhibition HDAC5) [%],IC50 [2] [µM],IC50 [3] [µM]
"O=C(CCCCCCC(=O)Nc1ccccc1)NO [SAHA, suberanilohydroxamic acid]",34,27,37,–,–,–,–,–,–,–,–
"Nc1ccccc1NC(=O)c1ccc(CNC(=O)OCc2cccnc2)cc1 [MS-275, entinostat]",–,–,–,> 100,–,–,–,–,–,–,–
"C/C=C1\NC(=O)[C@H]2CSSCC/C=C/[C@H](CC(=O)N[C@H](C(C)C)C(=O)N2)OC(=O)[C@H](C(C)C)NC1=O [FK228, romidepsin]",< 17,< 17,< 17,> 100,1.2,< 17,> 100,> 100,17,> 100,> 100
